Data as given in publication PMC10815170, “Exploring the Blood Glucose-Lowering Potential of the Umami Peptides LADW and EEAEGT Derived from Tuna Skeletal Myosin: Perspectives from α-Glucosidase Inhibition and Starch Interaction” (Foods, 2024).
Peptide text beside a SMILES is read from it.

Assays:
[1] = biological target: T1, α-Glucosidase from Saccharomyces cerevisiae (Saccharomyces cerevisiae, UniProt P53341); experiment: α-Glucosidase inhibitory activity (pNPG); type: biochemical; conditions: PBS pH 6.8, 37 °C, 405 nm; for α-glucosidase inhibitory rate: 10 mM peptide, pNPG, n = 3; for IC50: 15 min preincubation, pNPG 15 min, mean ± SD (n = 3), read-out: IC50 value, α-glucosidase inhibition
T1 construct: purchased Yuanye Bio-Technology Co., Ltd. (Shanghai, China)
T1 sequence (P53341 whole entry): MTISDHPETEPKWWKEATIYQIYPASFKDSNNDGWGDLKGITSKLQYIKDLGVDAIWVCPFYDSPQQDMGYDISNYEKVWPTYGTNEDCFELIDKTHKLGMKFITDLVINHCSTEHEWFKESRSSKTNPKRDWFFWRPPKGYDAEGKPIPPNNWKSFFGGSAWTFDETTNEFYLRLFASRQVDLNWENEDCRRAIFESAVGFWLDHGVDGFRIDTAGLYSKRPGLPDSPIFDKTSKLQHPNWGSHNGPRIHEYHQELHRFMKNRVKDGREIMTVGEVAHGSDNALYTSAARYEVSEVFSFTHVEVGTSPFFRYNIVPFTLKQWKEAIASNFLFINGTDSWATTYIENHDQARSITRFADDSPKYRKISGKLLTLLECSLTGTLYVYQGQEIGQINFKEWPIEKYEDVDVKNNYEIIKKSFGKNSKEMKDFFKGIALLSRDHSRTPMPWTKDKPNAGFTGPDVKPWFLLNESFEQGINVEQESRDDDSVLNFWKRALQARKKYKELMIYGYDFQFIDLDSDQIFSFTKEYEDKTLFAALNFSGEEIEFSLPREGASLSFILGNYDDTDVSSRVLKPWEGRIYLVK
Text: α-Glucosidase from Saccharomyces cerevisiae (activity ≥ 30 U/mg) and porcine bile salt (purity ≥ 60.0%) were obtained from Yuanye Bio-Technology Co., Ltd. (Shanghai, China). Pepsin (activity ≥ 800 U/mg), pancreatin (activity ≥ 4000 U/g), and amyloglucosidase (activity ≥ 10,000 U/g) were obtained from Shanghai Ryon Biological Technology Co., Ltd. The p-nitrobenzene-α-D-glucopyranoside (pNPG, purity ≥ 99.0%) was purchased from Sigma-Aldrich (Shanghai, China). Peptides LADW and EEAEGT (purity ≥ 98.0%) were synthesized by ALL PEPTIDE Biology Co., Ltd. (Hangzhou, China). All other chemicals and solvents were of analytical grade.
α-Glucosidase inhibitory activity was determined following the method of Zheng et al., with slight modifications. Briefly, 80.0 μL of phosphate-buffered saline (PBS, pH = 6.8), 20.0 μL of α-glucosidase (7 U/mL, dissolved in PBS), and 20.0 μL of the peptide (dissolved in PBS) were mixed and incubated at 37 °C for 15 min. Subsequently, 20.0 μL of pNPG (2.5 mM, dissolved in PBS) was added to the mixture, followed by another incubation at 37 °C for 15 min. To terminate the reaction, 60 μL of Na2CO3 (0.2 M, dissolved in PBS) was added, and the absorbance was measured at 405 nm using a SpectraMax M5 microplate reader (Molecular Devices, Sunnyvale, CA, USA). The α-glucosidase inhibitory rate (%) was determined using the following formula:α-glucosidase inhibitory rate (%) = [1 − (Asample − Asample blank)/(Acontrol − Acontrol blank)] × 100 where Asample and Asample blank were the absorbance values with and without α-glucosidase added, respectively; Acontrol and Acontrol blank were the absorbance values with and without peptide solution added, respectively, after replacing α-glucosidase solution with PBS solution. The above solution without addition was replaced by PBS solution.

[2] = sensory evaluation in previous work; ref [7]; cited from earlier work
Text: The intestinal stability, non-toxicity, and absorbability of peptides were considered important indicators for identifying bioactive peptides. In our previous work, these peptides were also confirmed to be non-toxic by sensory evaluation, and the peptides LADW and […] were obtained by hydrolysis with three common enzymes (pepsin, trypsin, and chymotrypsin) in the GI tract. […] Therefore, the potential α-GIPs identified in this study were presumed to withstand hy ...

[3] = set-up: method as in PMID 8001624; conditions: clinical practice; ref [3]; cited from earlier work
[4] = sensory evaluation in previous work; ref [7]; cited from earlier work; remark: listed apart in the source
Text: Table 1 Prediction results of physicochemical properties and potential activity of peptides. | column: Umami Threshold (mg/mL)

CC(C)C[C@H](N)C(=O)N[C@@H](C)C(=O)N[C@@H](CC(=O)O)C(=O)N[C@@H](Cc1c[nH]c2ccccc12)C(=O)O [LADW] (H-LADW-OH)
α-glucosidase inhibitory rate [1]: 98.15%
IC50 [1]: 4.4 ± 0.04 mM
Toxicity [2]: non-toxic

C[C@H](NC(=O)[C@H](CCC(=O)O)NC(=O)[C@@H](N)CCC(=O)O)C(=O)N[C@@H](CCC(=O)O)C(=O)NCC(=O)N[C@H](C(=O)O)[C@@H](C)O [EEAEGT] (H-EEAEGT-OH)
α-glucosidase inhibitory rate [1]: 96.44%
IC50 [1]: 6.46 ± 0.22 mM
Toxicity [2]: non-toxic

C[C@H]1O[C@H](O[C@H]2[C@H](O)[C@@H](O)[C@@H](O[C@H]3[C@H](O)[C@@H](O)C(O)O[C@@H]3CO)O[C@@H]2CO)[C@H](O)[C@@H](O)[C@@H]1N[C@H]1C=C(CO)[C@@H](O)[C@H](O)[C@H]1O (stereo partly drawn) [acarbose]
Adverse effects [3]: flatulence, diarrhea, and abdominal pain

VAEQE [novel umami peptide identified in the hydrolysate of tuna skeletal myosin]
Umami Threshold [4]: 0.125 mg/mL

MEIDD [novel umami peptide identified in the hydrolysate of tuna skeletal myosin]
Umami Threshold [4]: 0.250 mg/mL
